Results as given in US12285012B2, “Compositions comprising pyridine carboxylate herbicides with acetolactate synthase (ALS) inhibitor herbicides” (Corteva Agriscience LLC, priority 2018, dated 2025).
Several values for one entry are separate records, joined by “and”; a condition that tells them apart may be missing. Equal entries are not always repeated.

Legend:
Test in all cases: Greenhouse postemergence herbicidal effect
Format in all cases: in vivo
[1] = system: wild pansy (VIOTR, Viola tricolor)
Summary of the method: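 Injury was rated visually after 20-22 d on a 0 (none) to 100% (complete kill) scale relative to solvent-sprayed controls, with sub-irrigation to avoid wash-off. Rates were given in g ae/ha or g ai/ha depending on component.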

[2] = system: wild buckwheat (POLCO, Polygonum convolvulus)
Summary of the method: (§1)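 Herbicide mixtures, dosed as g ae/ha for the pyridine carboxylate and g ai/ha for the ALS inhibitor, are applied postemergence with cloquintocet-mexyl safener. Control plants receive solvent blank. Percent injury is assessed by eye 20–22 d later.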

[3] = system: wild chamomile (MATCH, Matricaria chamomilla)
Summary of the method: as §1

[4] = system: Russian thistle (SASKR, Salsola kali)
Summary of the method: as §1

[5] = system: pigweed (AMARE, Amaranthus retroflexus)
Summary of the method: as §1

[6] = system: Canadian thistle (CIRAR, Cirsium arvense); conditions: CIRAR
Summary of the method: as §1

[7] = Compound A 10 g/ha, safener mefenpyr-diethyl
[8] = Compound A 10 g/ha (Examples 62-63)

Q: For N#CCOC(=O)c1nc(-c2ccc3cc[nH]c3c2F)c(F)c(N)c1Cl [Compound A, cyanomethyl 4-amino-3-chloro-5-fluoro-6-(7-fluoro-1H-indol-6-yl)pyridine-2-carboxylate], which “% visual injury, Obs” value ([1]; 10 g/ha) is on record?
A: Its value is 23%.

Q: What about the “% visual injury” value ([1]; Compound A 10 g/ha) of the same molecule?
A: The value was 10%.

Q: And the “% visual injury, Obs” value [1, 7]?
A: Its value is 18%.

Q: What about the “VIOTR % visual injury Obs” value [1, 7] of the same molecule?
A: Its value is 18%.

Q: And the “% visual injury” value ([1]; Compound A 15 g/ha)?
A: The value was 10%.

Q: And the “% visual injury, Obs” value ([2]; 10 g/ha)?
A: The value was 70%.

Q: What about the “% visual injury” value ([2]; Compound A 10 g/ha) of the same molecule?
A: The value was 95% and 93% and 70% and 98%.

Q: And the “% visual injury, Obs” value ([2]; Compound A 10 g/ha)?
A: The value was 91%.

Q: And the “POLCO % visual injury Obs” value [2, 8]?
A: The value was 91%.

Q: What about the “% visual injury, Obs” value [2, 7] of the same molecule?
A: Its value is 100%.

Q: What about the “POLCO % visual injury Obs” value [2, 7] of the same molecule?
A: Its value is 100%.

Q: And the “% visual injury” value ([2]; Compound A 15 g/ha)?
A: The value was 97% and 88%.

Q: What about the “% visual injury Obs” value ([2]; Compound A 15 g/ha) of the same molecule?
A: Its value is 88%.

Q: And the “% visual injury, Obs” value ([2]; POLCO, Compound A 10 g/ha)?
A: The value was 98% and 78%.

Q: And the “Obs % visual injury” value ([2]; POLCO, Compound A 10 g/ha (Table 65))?
A: Its value is 91%.

Q: And the “Obs % visual injury” value ([2]; POLCO, Compound A 10 g/ha (Table 66))?
A: Its value is 70%.

Q: And the “Obs % visual injury” value ([2]; POLCO, Compound A 10 g/ha (Table 67))?
A: Its value is 60%.

Q: And the “% visual injury, Obs” value ([2]; POLCO, Compound A 15 g/ha)?
A: Its value is 88%.

Q: And the “Obs % visual injury” value ([2]; POLCO, Compound A 15 g/ha)?
A: Its value is 88%.

Q: What about the “Obs % visual injury” value ([2]; POLCO, Compound A 15 g/ha (Table 67)) of the same molecule?
A: Its value is 63%.

Q: What about the “% visual injury” value ([3]; Compound A 10 g/ha) of the same molecule?
A: The value was 40% and 30% and 45%.

Q: What about the “% visual injury, Obs” value ([3]; Compound A 10 g/ha) of the same molecule?
A: The value was 13%.

Q: And the “MATCH % visual injury Obs” value [3, 8]?
A: Its value is 13%.

Q: What about the “% visual injury” value ([3]; Compound A 15 g/ha) of the same molecule?
A: The value was 50% and 45%.

Q: What about the “% visual injury Obs” value ([3]; Compound A 15 g/ha) of the same molecule?
A: Its value is 45%.

Q: What about the “Obs % visual injury” value ([3]; MATCH, Compound A 10 g/ha (Table 65)) of the same molecule?
A: Its value is 13%.

Q: And the “Obs % visual injury” value ([3]; MATCH, Compound A 10 g/ha (Table 66))?
A: The value was 30%.

Q: And the “Obs % visual injury” value ([3]; MATCH, Compound A 10 g/ha (Table 67))?
A: Its value is 15%.

Q: What about the “% visual injury, Obs” value ([3]; MATCH, Compound A 15 g/ha) of the same molecule?
A: Its value is 45%.

Q: And the “Obs % visual injury” value ([3]; MATCH, Compound A 15 g/ha)?
A: Its value is 45%.

Q: And the “Obs % visual injury” value ([3]; MATCH, Compound A 15 g/ha (Table 67))?
A: The value was 10%.

Q: What about the “% visual injury, Obs” value ([4]; 10 g/ha) of the same molecule?
A: Its value is 60% and 63%.

Q: What about the “% visual injury” value ([4]; Compound A 10 g/ha) of the same molecule?
A: The value was 70% and 63%.

Q: What about the “% visual injury Obs” value ([4]; Compound A 10 g/ha) of the same molecule?
A: Its value is 60% and 63%.

Q: And the “% visual injury, Obs” value ([4]; Compound A 10 g/ha)?
A: The value was 65%.

Q: And the “SASKR % visual injury Obs” value [4, 8]?
A: The value was 65%.

Q: What about the “% visual injury” value ([4]; Compound A 15 g/ha) of the same molecule?
A: The value was 75%.

Q: And the “% visual injury, Obs” value ([4]; SASKR, Compound A 10 g/ha)?
A: Its value is 60%.

Q: And the “Obs % visual injury” value ([4]; SASKR, Compound A 10 g/ha)?
A: Its value is 63% and 65%.

Q: And the “Obs % visual injury” value ([4]; SASKR, Compound A 10 g/ha (Table 65))?
A: The value was 65%.

Q: And the “Obs % visual injury” value ([4]; SASKR, Compound A 10 g/ha (Table 67))?
A: Its value is 58%.

Q: And the “Obs % visual injury” value ([4]; SASKR, Compound A 15 g/ha (Table 67))?
A: Its value is 65%.

Q: What about the “% visual injury, Obs” value ([5]; 10 g/ha) of the same molecule?
A: Its value is 90%.

Q: What about the “% visual injury, Obs” value ([5]; AMARE, Compound A 10 g/ha) of the same molecule?
A: The value was 75%.

Q: What about the “Obs % visual injury” value ([5]; AMARE, Compound A 10 g/ha) of the same molecule?
A: Its value is 75% and 85% and 100%.

Q: What about the “Obs % visual injury” value ([5]; AMARE, Compound A 10 g/ha (Table 65)) of the same molecule?
A: The value was 100%.

Q: And the “Obs % visual injury” value ([5]; AMARE, Compound A 10 g/ha (Table 66))?
A: Its value is 90%.

Q: And the “Obs % visual injury” value ([5]; AMARE, Compound A 10 g/ha (Table 67))?
A: Its value is 78%.

Q: What about the “% visual injury, Obs” value ([5]; AMARE, Compound A 15 g/ha) of the same molecule?
A: The value was 80%.

Q: What about the “Obs % visual injury” value ([5]; AMARE, Compound A 15 g/ha) of the same molecule?
A: The value was 80%.

Q: And the “Obs % visual injury” value ([5]; AMARE, Compound A 15 g/ha (Table 67))?
A: Its value is 83%.

Q: And the “% visual injury” value ([5]; Compound A 10 g/ha)?
A: The value was 73% and 90% and 75%.

Q: What about the “% visual injury Obs” value ([5]; Compound A 10 g/ha) of the same molecule?
A: The value was 75% and 100% and 85%.

Q: What about the “% visual injury, Obs” value ([5]; Compound A 10 g/ha) of the same molecule?
A: Its value is 100%.

Q: And the “AMARE % visual injury Obs” value [5, 8]?
A: The value was 100%.

Q: What about the “% visual injury, Obs” value [5, 7] of the same molecule?
A: Its value is 98%.

Q: What about the “AMARE % visual injury Obs” value [5, 7] of the same molecule?
A: Its value is 98%.

Q: And the “% visual injury” value ([5]; Compound A 15 g/ha)?
A: Its value is 80%.

Q: And the “% visual injury Obs” value ([5]; Compound A 15 g/ha)?
A: Its value is 80%.

Q: And the “Obs % visual injury” value ([6]; Compound A 10 g/ha (Table 65))?
A: The value was 20%.

Q: And the “Obs % visual injury” value ([6]; Compound A 10 g/ha (Table 66))?
A: Its value is 30%.

Q: What about the “Obs % visual injury” value ([6]; Compound A 15 g/ha) of the same molecule?
A: Its value is 55%.
